Measurements: patent US20250302808A1, “DEXMEDETOMIDINE TREATMENT REGIMENS” (BioXcel Therapeutics, Inc., priority 2021, published 2025)
Where two headings read alike, the source gives them in different places.

Key:
[1] = Protocol: This was an adaptive Phase Ib/2 trial design. It was a randomized, double-blind, placebo-controlled, multiple ascending dose study assessing efficacy, pharmacokinetics, safety and tolerability of dexmedetomidine hydrochloride dosing in adult (65 years old and older) males and females with acute agitation associated with dementia.
The drug film was retained in the sublingual cavity until dissolved. Participants were also evaluated for local irritation around the area where the film was placed. Efficacy and safety assessments were conducted periodically before and after dosing. The next cohort was dosed after completing accrual of most prior panels, in accord with regular ongoing periodic safety and PK review as eligible subjects were assigned, dosed, and data became available.
Blood samples (4 mL) were collected at 0.5, 1, 2, 4, 8- and 24-hours post-dose per Schedule of Events (Table 9A).
All pharmacokinetic parameters were calculated using non-compartmental analysis using WinNonlin. Actual sampling times were used in all pharmacokinetic analyses. […] Other PK analyses might be performed as appropriate.
Plasma samples were collected at 0.5, 1, 2, (2.5 in re-dose subjects), 4 and 8 hr.

[2] = test system: opioid withdrawal symptoms
Protocol: (§1) • COWS and SOWS scores during Days 6-12. COWS and SOWS scores on Days 6-12 were analyzed using a mixed-effects, repeated-measures model. […] Kaplan-Meier estimates were used to generate survival curves for each treatment group. […] Differences in mean agitation and sedation were compared between the treatment groups using the same mixed-effects, repeated-measures model described above.

opioid withdrawal = test system: opioid withdrawal
Protocol: as §1
Kaplan-Meier estimates were also used to generate survival curves over time in each treatment group. Logistic regression model was used to compare the dexmedetomidine hydrochloride oromucosal film and placebo groups on the numbers of subjects dropping out after opioid discontinuation.

[3] = remark: listed apart in the source
Protocol: Blood samples (4 ml) were collected for pharmacokinetic analysis on inpatient Study Days 6 and 12 at 0, 2, 6, and 12 hours after the first dose of dexmedetomidine hydrochloride oromucosal film on Study Days 6 and 12.
Plasma concentration data for dexmedetomidine were analyzed by a popPK approach and reported separately. The plasma concentration data from this study were combined with PK data from other studies to develop the population PK model. The model was used to estimate exposure measures in subjects in this study through a modeling and simulation approach. • Interim data: The demographic data and baseline characteristics are given in Table 15C.

[4] = test system: elderly dementia patients
Protocol: AEs, clinical laboratory tests, 12-lead ECG, Johns Hopkins Fall Risk Assessment score, and vital signs were monitored, and all observed and volunteered AEs were recorded. Blood pressure, heart rate and ECG were completed per schedule of assessments. Any abnormal clinically significant (investigator determined) vital sign measurement, clinical laboratory test, physical examination finding, or ECG parameter were repeated, until the value returned to baseline (or within normal limits) or the investigator deemed the abnormality to be of no clinical significance. Orthostatic assessments followed the CDC guidelines for the elderly (e.g. blood pressure upon standing for 1, 3 and 5 minutes). Safety and tolerability assessments were continued until the morning of Day 2 and Day 3 and were repeated on Day 7=2 days.
Safety was assessed during the study by the monitoring and recording of AEs, clinical laboratory test results (hematology, biochemistry, and urinalysis), vital sign measurements (systolic and diastolic blood pressures, heart rate measured as pulse, respiratory rate, and temperature), ECG, and physical examination findings.
Adverse events (AEs) were characterized by type, severity, seriousness, and relationship to treatment. Adverse events were coded by preferred term and system organ class using MedDRA version 20.0.

[5] = test system: subjects undergoing opioid withdrawal; conditions: Fishman et al. 2019, cited from earlier work

Structure (SMILES) | exposure levels in elderly dementia patients vs schizophrenia patients ([1]; Table 9E) | AUC higher in dementia patients than in schizophrenia (and bipolar disorder) patients ([1]; same dose) | Cmax higher in dementia patients than in schizophrenia (and bipolar disorder) patients ([1]; same dose) | subjective rating of insomnia on SOWS scale ([2]; Day 7, about 240 μg twice daily) | ratings of anxiety or irritability on COWS scale ([2]; Day 8, about 240 μg twice daily) | retention rate (opioid withdrawal; Day 6, 120 μg dose) | retention rate (opioid withdrawal; Day 6, 180 μg dose) | plasma concentration as dose increased ([3]; 30 μg to 240 μg, days 6 and 12) | mean plasma concentrations between 2-hour and 12-hour timepoints ([3]; all doses) | consequences of doses higher than about 90 μg [4] | Adverse Event Bradycardia ([5]; 2.16 mg (N = 229)) | Adverse Event Dizziness ([5]; 2.16 mg (N = 229)) | Adverse Event Orthostatic hypotension ([5]; 2.16 mg (N = 229)) | Adverse Event Somnolence ([5]; 2.16 mg (N = 229)) | Adverse Event Bradycardia ([5]; 2.88 mg (N = 229)) | Adverse Event Dizziness ([5]; 2.88 mg (N = 229)) | Adverse Event Orthostatic hypotension ([5]; 2.88 mg (N = 229)) | Adverse Event Somnolence ([5]; 2.88 mg (N = 229))
Cc1cccc([C@H](C)c2cnc[nH]2)c1C [dexmedetomidine, (+) 4-(S)-[1-(2,3-dimethylphenyl)ethyl]-1H-imidazole] | higher exposure levels | about 55% | about 38% | significant reduction | significant reduction | at least 40% | at least 50% | dose dependent increases | declined over time | negative consequences | – | – | – | – | – | – | – | –
CC(Oc1c(Cl)cccc1Cl)C1=NCCN1 (stereo not drawn) [lofexidine] | – | – | – | – | – | – | – | – | – | – | 54 (24) n (%) | 44 (19) n (%) | 67 (29) n (%) | 25 (10.9) n (%) | 70 (32) n (%) | 51 (23.0) n (%) | 94 (42) n (%) | 29 (13.1) n (%)
